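Results reflect a 48-hour exposure of cells in 96-well plates to compound at five concentrations. GI50 is the concentration that inhibits growth by half. TGI: concentration producing complete growth inhibition.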
How the values were obtained:
Assay in all cases: NCI tumour cell line growth inhibition, 48 h
[1] = tested on: 786-0 renal
[2] = tested on: A498 renal
[3] = tested on: A549 NSCLC
[4] = tested on: ACHN renal
[5] = tested on: BT-549 breast
[6] = tested on: CAKI-1 renal
[7] = tested on: CCRF-CEM leukemia
[8] = tested on: COLO 205 colon
[9] = tested on: DU-145 prostate
[10] = tested on: EKVX NSCLC
[11] = tested on: HCC-2998 colon
[12] = tested on: HCT-116 colon
[13] = tested on: HCT-15 colon
[14] = tested on: HL-60(TB) leukemia
[15] = tested on: HOP-62 NSCLC
[16] = tested on: HOP-92 NSCLC
[17] = tested on: HS 578T breast
[18] = tested on: HT29 colon
[19] = tested on: IGROV1 ovarian
[20] = tested on: K-562 leukemia
[21] = tested on: KM12 colon
[22] = tested on: LOX IMVI melanoma
[23] = tested on: M14 melanoma
[24] = tested on: MALME-3M melanoma
[25] = tested on: MCF7 breast
[26] = tested on: MDA-MB-231 breast
[27] = tested on: MDA-MB-435
[28] = tested on: MOLT-4 leukemia
[29] = tested on: NCI-H226 lung
[30] = tested on: NCI-H23 lung
[31] = tested on: NCI-H460 lung
[32] = tested on: NCI-H522 lung
[33] = tested on: OVCAR-3 ovarian
[34] = tested on: OVCAR-4 ovarian
[35] = tested on: OVCAR-5 ovarian
[36] = tested on: OVCAR-8 ovarian
[37] = tested on: PC-3 prostate
[38] = tested on: RPMI-8226 leukemia
[39] = tested on: RXF 393 renal
[40] = tested on: SF-268 CNS
[41] = tested on: SF-295 CNS
[42] = tested on: SF-539 CNS
[43] = tested on: SK-MEL-2 melanoma
[44] = tested on: SK-MEL-28 melanoma
[45] = tested on: SK-MEL-5 melanoma
[46] = tested on: SK-OV-3 ovarian
[47] = tested on: SN12C renal
[48] = tested on: SNB-19 CNS
[49] = tested on: SNB-75 CNS
[50] = tested on: SR leukemia
[51] = tested on: SW-620 colon
[52] = tested on: T-47D breast
[53] = tested on: TK-10 renal
[54] = tested on: U251 CNS
[55] = tested on: UACC-257 melanoma
[56] = tested on: UACC-62 melanoma
[57] = tested on: UO-31 renal

## Cc1cccc(NC(=O)c2sc3nc4c(cc3c2N)CCCC4)c1C
[1]
  GI50: 532 nM
  TGI: > 100000 nM
[2]
  GI50: 232 nM
  TGI: 981 nM
[3]
  GI50: 612 nM
  TGI: > 100000 nM
[4]
  GI50: 680 nM
  TGI: > 100000 nM
[5]
  GI50: 2510 nM
  TGI: > 100000 nM
[6]
  GI50: 491 nM
  TGI: > 100000 nM
[7]
  GI50: 375 nM
  TGI: > 100000 nM
[8]
  GI50: 344 nM
  TGI: 27600 nM
[9]
  GI50: 454 nM
  TGI: > 100000 nM
[10]
  GI50: 708 nM
  TGI: > 100000 nM
[11]
  GI50: 1590 nM
  TGI: > 100000 nM
[12]
  GI50: 435 nM
  TGI: > 100000 nM
[13]
  GI50: 363 nM
  TGI: > 100000 nM
[14]
  GI50: 266 nM
  TGI: 941 nM
[15]
  GI50: 537 nM
  TGI: > 100000 nM
[16]
  GI50: 700 nM
  TGI: > 100000 nM
[17]
  GI50: 351 nM
  TGI: > 100000 nM
[18]
  GI50: 341 nM
  TGI: > 100000 nM
[19]
  GI50: 547 nM
  TGI: > 100000 nM
[20]
  GI50: 238 nM
  TGI: > 100000 nM
[21]
  GI50: 342 nM
  TGI: > 100000 nM
[22]
  GI50: 598 nM
  TGI: > 100000 nM
[23]
  GI50: 355 nM
  TGI: > 100000 nM
[24]
  GI50: 614 nM
  TGI: > 100000 nM
[25]
  GI50: 339 nM
  TGI: > 100000 nM
[26]
  GI50: 1600 nM
  TGI: > 100000 nM
[27]
  GI50: 115 nM
  TGI: 391 nM
[28]
  GI50: 455 nM
  TGI: > 100000 nM
[29]
  GI50: 1440 nM
  TGI: > 25100 nM
[30]
  GI50: 519 nM
  TGI: > 100000 nM
[31]
  GI50: 369 nM
  TGI: > 100000 nM
[32]
  GI50: 269 nM
  TGI: > 100000 nM
[33]
  GI50: 285 nM
  TGI: 871 nM
[34]
  GI50: 1480 nM
  TGI: > 100000 nM
[35]
  GI50: 1790 nM
  TGI: > 100000 nM
[36]
  GI50: 754 nM
  TGI: > 100000 nM
[37]
  GI50: 468 nM
  TGI: > 100000 nM
[38]
  GI50: 354 nM
  TGI: > 100000 nM
[39]
  GI50: 233 nM
  TGI: 733 nM
[40]
  GI50: 1030 nM
  TGI: > 100000 nM
[41]
  GI50: 516 nM
  TGI: > 100000 nM
[42]
  GI50: 272 nM
  TGI: 1200 nM
[43]
  GI50: 515 nM
  TGI: > 100000 nM
[44]
  GI50: > 48400 nM
  TGI: > 100000 nM
[45]
  GI50: 399 nM
  TGI: > 100000 nM
[46]
  GI50: 581 nM
  TGI: > 100000 nM
[47]
  GI50: 610 nM
  TGI: > 100000 nM
[48]
  GI50: 508 nM
  TGI: > 100000 nM
[49]
  GI50: 173 nM
[50]
  GI50: 276 nM
  TGI: > 100000 nM
[51]
  GI50: 369 nM
  TGI: > 100000 nM
[52]
  GI50: 505 nM
  TGI: > 100000 nM
[53]
  GI50: 23300 nM
  TGI: > 100000 nM
[54]
  GI50: 416 nM
  TGI: > 100000 nM
[55]
  GI50: > 100000 nM
  TGI: > 100000 nM
[56]
  GI50: 533 nM
  TGI: > 100000 nM
[57]
  TGI: > 100000 nM

Reference: PubChem BioAssay (NCI)
